Test results reported in the supplement of paper PMC10307832.

Key:
Experiment in all cases: relative viability (nuclei count vs DMSO), 5 days (fraction); higher = more cells survive
LU99A = test system: LU99A
Method in brief: (§1)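 Lung cancer cell lines were pin-tool dosed in 1536-well plates on the day after seeding, with either a lone drug or a fixed anchor-drug dose plus five library-drug doses (not always all listed) in √10 steps. Nuclei were counted on 4× images after 5 days. Relative viability is the ratio of treated-well to vehicle-well nuclei counts, with each value a median of duplicate plates.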

NCI-H2170 = test system: NCI-H2170
Method in brief: as §1

NCI-H650 = test system: NCI-H650
Method in brief: as §1

NCI-H1395 = test system: NCI-H1395
Method in brief: as §1

SW 900 = test system: SW 900
Method in brief: as §1

LXF-289 = test system: LXF-289
Method in brief: as §1

EMC-BAC-2 = test system: EMC-BAC-2
Method in brief: as §1

HARA = test system: HARA
Method in brief: as §1

HCC-78 = test system: HCC-78
Method in brief: as §1

BEN = test system: BEN
Method in brief: as §1

201T = test system: 201T
Method in brief: as §1

NCI-H2087 = test system: NCI-H2087
Method in brief: as §1

LOU-NH91 = test system: LOU-NH91
Method in brief: as §1

H3255 = test system: H3255
Method in brief: as §1

LC-2-ad = test system: LC-2-ad
Method in brief: as §1

NCI-H2126 = test system: NCI-H2126
Method in brief: as §1

RERF-LC-KJ = test system: RERF-LC-KJ
Method in brief: as §1

HOP-62 = test system: HOP-62
Method in brief: as §1

NCI-H1993 = test system: NCI-H1993
Method in brief: as §1

`Cc1cn(-c2cc(NC(=O)c3ccc(C)c(Nc4nccc(-c5cccnc5)n4)c3)cc(C(F)(F)F)c2)cn1` [Nilotinib] + NC(=O)Nc1cc(-c2cccc(F)c2)sc1C(=O)N[C@H]1CCCNC1 [AZD7762] (partner 0.2 µM) gave a relative viability (LU99A; first compound 0.001 µM) of 0.247, a relative viability (LU99A; first compound 0.003162 µM) of 0.513 and a relative viability (LU99A; first compound 0.01 µM) of 0.498. For the same compound, the relative viability (LU99A; first compound 0.03162 µM) was 0.33, the relative viability (LU99A; first compound 0.1 µM) was 0.199 and the relative viability (NCI-H2170; first compound 0.001 µM) was 0.744. It also gave a relative viability (NCI-H2170; first compound 0.003162 µM) of 1.32, a relative viability (NCI-H2170; first compound 0.01 µM) of 0.856 and a relative viability (NCI-H2170; first compound 0.03162 µM) of 0.602. It also gave a relative viability (NCI-H2170; first compound 0.1 µM) of 0.758, a relative viability (NCI-H650; first compound 0.001 µM) of 1.08 and a relative viability (NCI-H650; first compound 0.003162 µM) of 1.01. It also gave a relative viability (NCI-H650; first compound 0.01 µM) of 0.914, a relative viability (NCI-H650; first compound 0.03162 µM) of 0.918 and a relative viability (NCI-H650; first compound 0.1 µM) of 0.721. The relative viability (NCI-H1395; first compound 0.001 µM) was 0.4, the relative viability (NCI-H1395; first compound 0.01 µM) was 0.37 and the relative viability (NCI-H1395; first compound 0.03162 µM) was 0.361. It also gave a relative viability (NCI-H1395; first compound 0.1 µM) of 0.362, a relative viability (SW 900; first compound 0.003162 µM) of 0.479 and a relative viability (SW 900; first compound 0.01 µM) of 0.575. For the same compound, the relative viability (SW 900; first compound 0.03162 µM) was 0.369, the relative viability (SW 900; first compound 0.1 µM) was 0.304 and the relative viability (LXF-289; first compound 0.001 µM) was 1.03. For the same compound, the relative viability (LXF-289; first compound 0.003162 µM) was 1.2, the relative viability (LXF-289; first compound 0.01 µM) was 1.21 and the relative viability (LXF-289; first compound 0.03162 µM) was 1.08. The relative viability (LXF-289; first compound 0.1 µM) was 0.642, the relative viability (EMC-BAC-2; first compound 0.001 µM) was 1.05 and the relative viability (EMC-BAC-2; first compound 0.003162 µM) was 1.02. For the same compound, the relative viability (EMC-BAC-2; first compound 0.01 µM) was 1.14, the relative viability (EMC-BAC-2; first compound 0.03162 µM) was 1.02 and the relative viability (EMC-BAC-2; first compound 0.1 µM) was 1.03. The relative viability (HARA; first compound 0.001 µM) was 0.329, the relative viability (HARA; first compound 0.003162 µM) was 0.208 and the relative viability (HARA; first compound 0.01 µM) was 0.536. For the same compound, the relative viability (HARA; first compound 0.03162 µM) was 0.197, the relative viability (HARA; first compound 0.1 µM) was 0.245 and the relative viability (HCC-78; first compound 0.001 µM) was 0.668. The relative viability (HCC-78; first compound 0.003162 µM) was 0.442, the relative viability (HCC-78; first compound 0.01 µM) was 0.725 and the relative viability (HCC-78; first compound 0.03162 µM) was 0.58. For the same compound, the relative viability (HCC-78; first compound 0.1 µM) was 0.628, the relative viability (BEN; first compound 0.001 µM) was 0.76 and the relative viability (BEN; first compound 0.003162 µM) was 0.649. For the same compound, the relative viability (BEN; first compound 0.01 µM) was 0.589, the relative viability (BEN; first compound 0.03162 µM) was 0.6 and the relative viability (BEN; first compound 0.1 µM) was 0.53. For the same compound, the relative viability (201T; first compound 0.001 µM) was 0.568, the relative viability (201T; first compound 0.003162 µM) was 0.546 and the relative viability (201T; first compound 0.01 µM) was 0.563. It also gave a relative viability (201T; first compound 0.03162 µM) of 0.424, a relative viability (201T; first compound 0.1 µM) of 0.317 and a relative viability (NCI-H2087; first compound 0.001 µM) of 0.828. It also gave a relative viability (NCI-H2087; first compound 0.003162 µM) of 1.58, a relative viability (NCI-H2087; first compound 0.01 µM) of 1.98 and a relative viability (NCI-H2087; first compound 0.03162 µM) of 0.86. The relative viability (NCI-H2087; first compound 0.1 µM) was 0.893, the relative viability (LOU-NH91; first compound 0.001 µM) was 0.748 and the relative viability (LOU-NH91; first compound 0.003162 µM) was 0.742. For the same compound, the relative viability (LOU-NH91; first compound 0.01 µM) was 0.772, the relative viability (LOU-NH91; first compound 0.03162 µM) was 0.65 and the relative viability (LOU-NH91; first compound 0.1 µM) was 0.684. It also gave a relative viability (H3255; first compound 0.001 µM) of 0.827, a relative viability (H3255; first compound 0.003162 µM) of 0.65 and a relative viability (H3255; first compound 0.01 µM) of 0.908. The relative viability (H3255; first compound 0.03162 µM) was 0.811, the relative viability (H3255; first compound 0.1 µM) was 0.733 and the relative viability (LC-2-ad; first compound 0.001 µM) was 0.855. It also gave a relative viability (LC-2-ad; first compound 0.003162 µM) of 1.01, a relative viability (LC-2-ad; first compound 0.01 µM) of 1.02 and a relative viability (LC-2-ad; first compound 0.03162 µM) of 0.748. The relative viability (LC-2-ad; first compound 0.1 µM) was 0.377, the relative viability (NCI-H2126; first compound 0.001 µM) was 0.965 and the relative viability (NCI-H2126; first compound 0.003162 µM) was 1.14. The relative viability (NCI-H2126; first compound 0.01 µM) was 1.06, the relative viability (NCI-H2126; first compound 0.03162 µM) was 0.962 and the relative viability (NCI-H2126; first compound 0.1 µM) was 0.606. It also gave a relative viability (RERF-LC-KJ; first compound 0.001 µM) of 0.834, a relative viability (RERF-LC-KJ; first compound 0.003162 µM) of 1.02 and a relative viability (RERF-LC-KJ; first compound 0.01 µM) of 1.16. The relative viability (RERF-LC-KJ; first compound 0.03162 µM) was 0.598, the relative viability (RERF-LC-KJ; first compound 0.1 µM) was 0.427 and the relative viability (HOP-62; first compound 0.001 µM) was 0.57. The relative viability (HOP-62; first compound 0.003162 µM) was 0.549, the relative viability (HOP-62; first compound 0.01 µM) was 0.595 and the relative viability (HOP-62; first compound 0.03162 µM) was 0.271. It also gave a relative viability (NCI-H1993; first compound 0.001 µM) of 0.875, a relative viability (NCI-H1993; first compound 0.003162 µM) of 0.803 and a relative viability (NCI-H1993; first compound 0.01 µM) of 0.819. For the same compound, the relative viability (NCI-H1993; first compound 0.03162 µM) was 0.754 and the relative viability (NCI-H1993; first compound 0.1 µM) was 0.559.
